From patent US12269813B2, “Crystalline form of 1-(1-oxo-1,2-dihydroisoquinolin-5-yl)-5-(trifluoromethyl)-N-(2-(trifluoromethyl)pyridin-4-yl)-1H-pyrazole-4-carboxamide monohydrate” (Janssen Pharmaceutica NV, priority 2019, dated 2025)
“Also recorded” adds a separate entry of the source.

Tests used:
[1] = Moisture sorption analysis (dynamic vapor sorption, DVS); format: physicochemical; conditions: for hygroscopic behaviour: DVS, 0 to 95% RH at 25° C.; for loss of hydration water at low relative humidity: RH of 20% or less
Experimental: The moisture sorption analysis (DVS) was performed using a Surface Measurement Systems Advantage-1 dynamic vapor sorption apparatus. The moisture profile was evaluated by monitoring vapor adsorption/desorption over the range of 0 to 95% relative humidity at 25° C. The moisture profile consisted of 2 cycles of vapor adsorption/desorption.

[2] = Physical stability study with respect to water loss or uptake (water content by coulometric Karl Fischer); format: physicochemical
Experimental: The physical stability of Compound A monohydrate, Form III with respect to water loss or uptake was tested.
For the initial study, 0.5 g samples of monohydrate Form III were placed in double antistatic colourless LDPE bags and sealed.
For the long-term study (stability after 1 month and 3 months), 1.5 g samples of monohydrate Form III were placed in double antistatic colourless LDPE bags and sealed. The samples were stored at 30±2° C./75±5% RH and 40±2° C./75±5% RH in cardboard drums.
For the photostability study, 1.5 g of monohydrate Form III was placed into a petri dish and spread into a layer of no more than 3 mm thick. The petri dish was covered with quartz coverslips and sealed with parafilm. The photostability testing was carried out in line with ICH Q1B option 2 (ICH Harmonised Tripartite Guideline, Stability testing: Photostability testing of new drug substances and products, Q1B, Step 4 version, 6 Nov. 1996). Photostability samples were stored under separate lamps emitting visible and UV-A light, such that the total exposure was not less than 1.2 million lux hours and 200 Watt hours/m^2, respectively.
The water content of each of the samples was determined using a vaporized coulometric Karl Fischer method, in accordance with the US Pharmacopeia (USP <921> method IC; most recently appeared in Pharmacopeial Forum: Volume No. 38(1); Page information USP42/NF37-7092) and European Pharmacopeia 2.5.32 (Edition 10.0).

hygroscopic behaviour ([1]; monohydrate)	water uptake ([1]; at 80% relative humidity)	Water content (%) ([2]; 30° C./75% RH, 1 month)	Water content (%) ([2]; 30° C./75% RH, 3 months)	Water content (%) ([2]; 40° C./75% RH, 1 month)	Water content (%) ([2]; 40° C./75% RH, 3 months)	Water content (%) ([2]; Initial)	hygroscopic character concluded from the stability study ([2]; Table 3 storage conditions)	Water content (%) ([2]; photostability, 1 × ICH option 2)	hygroscopic behaviour [1]	loss of hydration water at low relative humidity [1]	moisture adsorbed ([1]; humidity range 0-20% RH)	moisture adsorption and desorption ([1]; humidity range 20-95% RH, slow and reversible) [%]	weight loss during the initial drying step (DVS change in mass plot) ([1]; initial drying step) [%]	SMILES	loss of hydration water at low relative humidity ([1]; monohydrate)	solid-state form change after the DVS test (XRPD pattern and IR spectrum) ([1]; fraction obtained after the DVS test vs starting material)
non-hygroscopic	less than 0.2%	3.3	3.8	3.3	3.2	3.4	non-hygroscopic	3.4	–	–	–	–	–	O=C(Nc1ccnc(C(F)(F)F)c1)c1cnn(-c2cccc3c(=O)[nH]ccc23)c1C(F)(F)F [Form III, 1-(1-oxo-1,2 dihydroisoquinolin-5-yl)-5-(trifluoromethyl)-N-(2-(trifluoromethyl)pyridin-4-yl)-1H-pyrazole-4-carboxamide (Compound A) monohydrate]	does not lose water; also recorded: avoids loss of water	–
–	–	–	–	–	–	–	–	–	hygroscopic	lost at RH of 20% and less	4.1-4.2%	1.8	~2.7	O=C(Nc1ccnc(C(F)(F)F)c1)c1cnn(-c2cccc3c(=O)[nH]ccc23)c1C(F)(F)F [Form I, 1-(1-oxo-1,2-dihydroisoquinolin-5-yl)-5-(trifluoromethyl)-N-[2-(trifluoromethyl)pyridin-4-yl]-1H-pyrazole-4-carboxamide (Compound A) hydrate, Form I]	–	No indication of a solid-state form change
